Experimental findings from patent US11439641B2, “Pyrimidine JAK inhibitors for the treatment of skin diseases” (THERAVANCE BIOPHARMA R&D IP, LLC, priority 2019, dated 2022) are described below.

The target of one data set is JAK1 (Homo sapiens (Human), UniProt P23458). Nature of the data set: Biochemical JAK and Tyk2 Kinase Assays (LanthaScreen), JAK1. The note with it: 25 μM ATP (Km); pIC50 converted to pKi by Cheng-Prusoff. How it is done: (§1) Assay 1: Biochemical JAK and Tyk2 Kinase Assays
(§2) A panel of four LanthaScreen JAK biochemical assays (JAK1, 2, 3 and Tyk2) were carried in a common kinase reaction buffer (50 mM HEPES, pH 7.5, 0.01% Brij-35, 10 mM MgCl2, and 1 mM EGTA). Recombinant GST-tagged JAK enzymes and a GFP-tagged STAT1 peptide substrate were obtained from Life Technologies.
(§3) Serially or discretely diluted compounds were pre-incubated with each of the four JAK enzymes and the substrate in white 384-well microplates (Corning) at ambient temperature for 1 h. ATP was subsequently added to initiate the kinase reactions in 10 μL total volume, with 1% DMSO. The final enzyme concentrations for JAK1, 2, 3 and Tyk2 are 4.2 nM, 0.1 nM, 1 nM, and 0.25 nM respectively; the corresponding Km ATP concentrations used are 25 μM, 3 μM, 1.6 μM, and 10 μM; while the substrate concentration is 200 nM for all four assays. Kinase reactions were allowed to proceed for 1 hour at ambient temperature before a 10 μL preparation of EDTA (10 mM final concentration) and Tb-anti-pSTAT1 (pTyr701) antibody (Life Technologies, 2 nM final concentration) in TR-FRET dilution buffer (Life Technologies) was added. The plates were allowed to incubate at ambient temperature for 1 h before being read on the EnVision reader (Perkin Elmer). Emission ratio signals (520 nm/495 nm) were recorded and utilized to calculate the percent inhibition values based on DMSO and background controls.
(§4) For dose-response analysis, percent inhibition data were plotted vs. compound concentrations, and IC50 values were determined from a 4-parameter robust fit model with the Prism software (GraphPad Software). Results were expressed as pIC50 (negative logarithm of IC50) and subsequently converted to pKi (negative logarithm of dissociation constant, Ki) using the Cheng-Prusoff equation.

For a further data set, the target named is JAK3 (Homo sapiens (Human), UniProt P52333). The experiment in a line: Biochemical JAK and Tyk2 Kinase Assays (LanthaScreen), JAK3. Conditions: 1.6 μM ATP (Km), pIC50 converted to pKi by Cheng-Prusoff; for Ki: read-out: JAK 3 (pKi) (converted). On the procedure:
as §1, §2, §3, §4

Another data set can be described thus: Aqueous Solubility Assay. The note with it: PBS buffer pH 7.4; maximum upper limit 1,000 μM.
Data set [1] can be described thus: Solubility Assay in Organic Excipients. The note with it: maximum upper limit 20,000 μM; for Solubility in MCT (mg/mL): medium chain triglycerides (MCT).
Description: (§5) Assay 6: Solubility Assay in Organic Excipients
(§6) The purpose of this assay was to quantify the solubility of test compounds in different organic excipients such as diisopropyl adipate, medium chain triglycerides (MCT), propylene glycol, and polyethylene glycol. The assay required 80 μL of 100 mM DMSO test compound solution per desired excipient in addition to 40 μL required to make a test standard.
(§7) The standard was created by diluting 40 μL of 100 mM DMSO compound stock solution into 160 μL of methanol and was shaken for five minutes to ensure solution uniformity. […] This 20,000 μM solution was run on an Agilent 1260 LC-MS system by injecting 0.2 μL in order to obtain the peak area. For the test solutions, 80 μL of 100 mM DMSO compound stock solution, per excipient, were dried down into a powder overnight. Once in powder form, 400 μL of the desired excipient was added to the powder and allowed to shake vigorously for four hours. The maximum theoretical concentration for this sample solution was 20,000 μM. After four hours of shaking, the samples were centrifuged for 10 minutes at 3,000 RPM before injecting 0.2 μL on the same Agilent 1260 LC-MS system to obtain the peak area.
Data set [2] has as its system IL-2 stimulated pSTAT5 in Tall-1 T cells. Nature of the data set: Inhibition of IL-2 Stimulated pSTAT5 in Tall-1 T Cells. The class given is cell-based. The note with it: Tall-1 human T cell line, IL-2 300 ng/mL, AlphaLisa; read-out: Tall-1 IL2 pSTAT5 (pIC50) (converted). On the procedure: Assay 2: Inhibition of IL-2 Stimulated pSTAT5 in Tall-1 T Cells
The potency of test compounds for inhibition of interleukin-2 (IL-2) stimulated STATS phosphorylation was measured in the Tall-1 human T cell line (DSMZ) using AlphaLisa. Because IL-2 signals through JAK1/3, this assay provides a measure of JAK1/3 cellular potency.
Phosphorylated STATS was measured via the AlphaLISA SureFire Ultra pSTAT5 (Tyr694/699) kit (PerkinElmer). Human T cells from the Tall-1 cell line were cultured in a 37° C., 5% CO2 humidified incubator in RPMI (Life Technologies) supplemented with 15% Heat Inactivated Fetal Bovine Serum (FBS, Life Technologies), 2 mM Glutamax (Life Technologies), 25 mM HEPES (Life Technologies) and 1× Pen/Strep (Life Technologies). Compounds were serially diluted in DMSO and dispensed acoustically to empty wells. Assay media (phenol red-free DMEM (Life Technologies) supplemented with 10% FBS (ATCC)) was dispensed (4 μL/well) and plates shaken at 900 rpm for 10 mins. Cells were seeded at 45,000 cells/well in assay media (4 μL/well), and incubated at 37° C., 5% CO2 for 1 hour, followed by the addition of IL-2 (R&D Systems; final concentration 300 ng/mL) in pre-warmed assay media (4 μL) for 30 minutes. After cytokine stimulation, cells were lysed with 6 ul of 3× AlphaLisa Lysis Buffer (PerkinElmer) containing 1× PhosStop and Complete tablets (Roche). The lysate was shaken at 900 rpm for 10 minutes at room temperature (RT). Phosphorylated STATS was measured via the pSTAT5 AlphaLisa kit (PerkinElmer). Freshly prepared acceptor bead mixture was dispensed onto lysate (51) under green filtered <100 lux light. Plates were shaken at 900 rpm for 2 mins, briefly spun down, and incubated for 2 hrs at RT in the dark. Donor beads were dispensed (5 μL) under green filtered <100 lux light. Plates were shaken at 900 rpm for 2 minutes, briefly spun down, and incubated overnight at RT in the dark. Luminescence was measured with excitation at 689 nm and emission at 570 nm using an EnVision plate r reader (PerkinElmer) under green filtered <100 lux light.
To determine the inhibitory potency of test compounds in response to IL-2, the average emission intensity of beads bound to pSTAT5 was measured in a human T cell line. IC50 values were determined from analysis of the inhibition curves of signal intensity versus compound concentration. Data are expressed as pIC50 (negative decadic logarithm IC50) values (mean±standard deviation).

Another data set concerns Caco-2 cell monolayer. The experiment in a line: Caco-2 Permeation Assay. The note with it: Papp, 5 μM compound; for Cacoverap Kp 10^−6 cm/sec: A→B in the presence of 25 μM verapamil (P-gp inhibitor); for Caco Kp 10^−6 cm/sec: apical to basal (A→B). The class given is in vitro ADME. How it is done:
Assay 3: Caco-2 Permeation Assay
The Caco 2 permeability assay was used as a surrogate for assessment of skin permeability. This assay measures the in vitro permeability across a monolayer of Caco-2 cells, which morphologically and functionally resemble the enterocytes of the small intestine.
CacoReady 24-well transwell plates were obtained from ADMEcell (Alameda, Calif.). The compounds were evaluated at a concentration of 5 μM from 10 mM DMSO stock solutions in duplicate (n=2). Transport in the apical to basal (A→B) direction was determined in Caco 2 cell monolayers. From these values the apparent permeability (Papp) was calculated. To inform on the potential of the compound to be a P-gp substrate, the transport of the compound across the Caco-2 cell monolayer was also determined in the presence of 25 μM of the known P-gp inhibitor verapamil (Yusa and Tsuruo et al., Cancer Research, vol. 49, no. 18, 1989, pp. 5002-06).
Caco-2 culture media consisted of standard filtered DMEM, FCS 10%, L-Glutamine 1%, and PenStrep 1%. The experiment was conducted at 37° C. and in a CO2 (5%) incubator. The basal assay plate was prepared by adding 750 pt of transport buffer to A→B wells. A CacoReady™ plate was prepared by removing the Caco-2 media from the apical wells and replacing with fresh transport media (200 pt repeated for a total of 3 washes). Blank media (200 μL) was then replaced with diluted compound. To begin the incubation, the basal plate was removed from the incubator and the apical section was added on top of it. Samples were collected from the apical and basal compartments for time zero (t0). Samples were collected again after 120 minutes (t120) from the apical and basal compartments. All samples were diluted and prepared for bioanalysis by LC-MS/MS. The permeability coefficients (Papp, mean A to B) and (Papp, mean A to B+Verapamil) in cm/sec were calculated as dQ (flux)/(dt×Area×concentration).
In this assay, a compound with a Papp value of more than about 12×10−6 cm/sec is considered to have high permeability.

A further data set in a line: physchem. The note with it: thermodynamic from solid.
Where [3] appears, read: oil or lipid, Solubility in MCT (mg/mL).
Setting [4] is: organic solvent or mixture, Solubility in Diisopropyl adipate (mg/mL).
The mark [5] stands for this setting: organic solvent or mixture, Solubility in PEG400 (mg/mL).
[6] abbreviates: organic solvent or mixture, Solubility in Propylene glycol (mg/mL).

JAK1, sequence (P23458 whole entry): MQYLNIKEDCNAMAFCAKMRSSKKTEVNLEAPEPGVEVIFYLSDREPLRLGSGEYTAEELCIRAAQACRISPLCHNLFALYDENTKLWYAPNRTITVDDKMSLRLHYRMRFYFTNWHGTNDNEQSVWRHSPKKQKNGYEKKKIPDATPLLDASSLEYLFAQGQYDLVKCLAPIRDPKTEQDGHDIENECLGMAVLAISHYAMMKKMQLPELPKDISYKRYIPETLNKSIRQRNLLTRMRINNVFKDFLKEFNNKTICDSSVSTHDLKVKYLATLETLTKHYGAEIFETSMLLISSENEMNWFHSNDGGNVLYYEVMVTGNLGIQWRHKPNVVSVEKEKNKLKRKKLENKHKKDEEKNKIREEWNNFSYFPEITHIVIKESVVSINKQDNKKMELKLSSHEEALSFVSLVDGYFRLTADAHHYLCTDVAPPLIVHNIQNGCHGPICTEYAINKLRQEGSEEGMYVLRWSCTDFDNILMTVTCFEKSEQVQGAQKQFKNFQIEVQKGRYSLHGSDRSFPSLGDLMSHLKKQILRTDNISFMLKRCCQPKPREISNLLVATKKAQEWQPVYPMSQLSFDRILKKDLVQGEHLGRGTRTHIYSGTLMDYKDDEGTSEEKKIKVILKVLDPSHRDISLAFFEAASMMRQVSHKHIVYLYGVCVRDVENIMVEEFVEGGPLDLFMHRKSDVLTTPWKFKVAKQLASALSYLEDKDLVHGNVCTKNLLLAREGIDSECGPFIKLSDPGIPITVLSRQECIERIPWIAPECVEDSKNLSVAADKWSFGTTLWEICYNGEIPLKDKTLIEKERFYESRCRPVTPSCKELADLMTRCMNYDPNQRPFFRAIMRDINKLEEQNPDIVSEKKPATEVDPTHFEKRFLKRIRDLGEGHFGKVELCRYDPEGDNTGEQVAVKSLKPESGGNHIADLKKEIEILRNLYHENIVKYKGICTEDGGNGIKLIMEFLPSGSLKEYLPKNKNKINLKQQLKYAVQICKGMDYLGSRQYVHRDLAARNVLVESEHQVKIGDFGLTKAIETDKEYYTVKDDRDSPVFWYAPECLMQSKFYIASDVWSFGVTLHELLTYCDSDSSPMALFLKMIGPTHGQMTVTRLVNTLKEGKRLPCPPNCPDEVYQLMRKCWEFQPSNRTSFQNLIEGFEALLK
JAK3, sequence (P52333 whole entry): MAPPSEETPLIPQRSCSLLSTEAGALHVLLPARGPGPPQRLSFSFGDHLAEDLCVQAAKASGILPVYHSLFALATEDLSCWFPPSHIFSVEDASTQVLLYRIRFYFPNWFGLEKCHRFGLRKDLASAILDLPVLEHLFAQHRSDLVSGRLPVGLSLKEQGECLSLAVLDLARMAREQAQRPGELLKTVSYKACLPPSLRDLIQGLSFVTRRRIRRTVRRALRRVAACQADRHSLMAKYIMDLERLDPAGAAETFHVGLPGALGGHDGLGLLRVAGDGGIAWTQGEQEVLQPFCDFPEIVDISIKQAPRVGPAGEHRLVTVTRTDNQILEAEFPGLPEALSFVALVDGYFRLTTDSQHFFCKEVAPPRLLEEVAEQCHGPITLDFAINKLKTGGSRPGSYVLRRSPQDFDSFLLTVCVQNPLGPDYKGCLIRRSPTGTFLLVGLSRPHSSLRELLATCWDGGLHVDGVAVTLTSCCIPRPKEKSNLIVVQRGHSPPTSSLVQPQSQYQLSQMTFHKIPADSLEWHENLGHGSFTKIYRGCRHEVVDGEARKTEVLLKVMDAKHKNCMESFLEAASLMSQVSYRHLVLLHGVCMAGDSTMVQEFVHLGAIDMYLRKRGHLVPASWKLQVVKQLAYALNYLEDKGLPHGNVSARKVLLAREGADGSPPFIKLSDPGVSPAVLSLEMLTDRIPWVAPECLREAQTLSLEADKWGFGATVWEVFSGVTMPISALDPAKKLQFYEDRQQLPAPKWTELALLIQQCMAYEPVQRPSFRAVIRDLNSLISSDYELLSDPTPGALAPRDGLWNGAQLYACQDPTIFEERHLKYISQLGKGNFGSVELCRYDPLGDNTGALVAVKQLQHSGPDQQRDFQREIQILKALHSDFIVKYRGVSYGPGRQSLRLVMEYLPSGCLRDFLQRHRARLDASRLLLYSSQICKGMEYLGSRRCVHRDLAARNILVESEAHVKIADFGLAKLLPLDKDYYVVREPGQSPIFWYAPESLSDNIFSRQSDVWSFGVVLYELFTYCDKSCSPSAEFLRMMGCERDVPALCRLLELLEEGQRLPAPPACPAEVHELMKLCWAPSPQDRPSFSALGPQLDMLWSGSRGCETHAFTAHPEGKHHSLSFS
Description for Aqueous Solubility Assay: Assay 5: Aqueous Solubility Assay
The purpose of this assay was to quantify the solubility of test compounds in pH 4 and pH 7.4 PBS buffers. The assay required 40 μL of 10 mM DMSO test compound solution per desired buffer in addition to 20 μL required to make a test standard. For example, to test a compound in both buffers, 100 μL (2*40 μL+20 μL) of 10 mM DMSO compound stock solution was required.
The standard was created by diluting 20 μL of 10 mM DMSO compound stock solution into 180 μL of methanol and was shaken for five minutes to ensure solution uniformity. […] This 1,000 μM solution was run on an Agilent 1260 LC-MS system by injecting 2 μL in order to obtain the peak area. For the test solutions, 40 μL of 10 mM DMSO compound stock solution, per PBS buffer condition, were dried down into a powder overnight. Once in powder form, 400 μL of the desired PBS buffer was added to the powder and allowed to shake vigorously for four hours. The maximum theoretical concentration for this sample solution was 1,000 μM. After four hours of shaking, the samples were centrifuged for 10 minutes at 3,000 RPM before injecting 2 μL on the same Agilent 1260 LC-MS system to obtain the peak area.
In Table 6 below, A represents a value above 500, B represents a value between 250 and 500, C represents a value between 50 and 250, D represents a value between 10 and 50, and E represents a value below 10.
Description for physchem: as §5, §6, §7

As to `CCS(=O)(=O)N1[C@@H]2CCC[C@H]1C[C@H](N(C)c1nc(Nc3cc(C)[nH]n3)c(F)c(C3CCOC3)n1)C2` (stereo partly drawn) [Compound 44, N2-((1R,3s,5S)-9-(ethylsulfonyl)-9-azabicyclo[3.3.1]nonan-3-yl)-5-fluoro-N2-methyl-N4-(5-methyl-1H-pyrazol-3-yl)-6-(tetrahydrofuran-3-yl)pyrimidine-2,4-diamine], the “JAK 1 (pKi)” value on JAK1 is reported as “A (A represents a pKi value ≥10 (Ki≤0.1 nM))”. In addition, the “JAK 3 (pKi)” value at JAK3 was “C (C represents a pKi value between 8 and 9 (Ki between 10 nM and 1 nM))”. Further, the “Solubility at PH 7.4 (μmol)” value in the data set “Aqueous Solubility Assay” is given as “E (E represents a value below 10)”.

For the molecule `Cc1cc(Nc2cc(C3CCCO3)nc(N(C)[C@@H]3C[C@H]4CCC[C@@H](C3)N4CC(=O)N3CCCC3)n2)n[nH]1` (stereo partly drawn) [Compound 16, 2-((1R,3s,5S)-3-(methyl(4-((5-methyl-1H-pyrazol-3-yl)amino)-6-(tetrahydrofuran-2-yl)pyrimidin-2-yl)amino)-9-azabicyclo[3.3.1]nonan-9-yl)-1-(pyrrolidin-1-yl)ethan-1-one], on JAK1, the “JAK 1 (pKi)” value is on record as “A (A represents a pKi value ≥10 (Ki≤0.1 nM))”. Also, the “JAK 3 (pKi)” value at JAK3 is “C (C represents a pKi value between 8 and 9 (Ki between 10 nM and 1 nM))”. In “Aqueous Solubility Assay”, the “Solubility at PH 7.4 (μmol)” value is “A (A represents a value above 500)”. In data set [1], the “Solubility in PEG400 (mg/mL)” value is reported as “C (C represents a value below 5)”, the “Solubility in Diisopropyl adipate (mg/mL)” value is “C (C represents a value below 5)”, the “Solubility in MCT (mg/mL)” value is “C (C represents a value below 5)” and the “Solubility in Propylene glycol (mg/mL)” value is “C (C represents a value below 5)”.

For the molecule `CCS(=O)(=O)N1[C@@H]2CCC[C@H]1C[C@H](N(C)c1nc(Nc3cc(C)[nH]n3)cc(O[C@H]3CCOC3)n1)C2` [Compound 33, N^2-((1R,3s,5S)-9-(ethylsulfonyl)-9-azabicyclo[3.3.1]nonan-3-yl)-N2-methyl-N4-(5-methyl-1H-pyrazol-3-yl)-6-(((S)-tetrahydrofuran-3-yl)oxy)pyrimidine-2,4-diamine], the “JAK 1 (pKi)” value at JAK1 is given as “A (A represents a pKi value ≥10 (Ki≤0.1 nM))”. In addition, the “JAK 3 (pKi)” value on JAK3 is “B (B represents a pKi value between 9 and 10 (Ki between 1 nM and 0.1 nM))”. In addition, the “Solubility at PH 7.4 (μmol)” value in “Aqueous Solubility Assay” is “D (D represents a value between 10 and 50)”. In data set [1], the “Solubility in PEG400 (mg/mL)” value was “B (B represents a value between 5 and 10)”; the “Solubility in Diisopropyl adipate (mg/mL)” value is “C (C represents a value below 5)”; the “Solubility in MCT (mg/mL)” value is reported as “C (C represents a value below 5)”; the “Solubility in Propylene glycol (mg/mL)” value is “A (A represents a value above 10)”.

Take `CCNC(=O)CN1[C@@H]2CCC[C@H]1C[C@H](N(C)c1nc(Nc3cc(C)[nH]n3)cc(O[C@@H]3CCOC3)n1)C2` [Compound 20]: the “JAK 1 (pKi)” value on JAK1 is recorded as “A (A represents a pKi value ≥10 (Ki≤0.1 nM))”. Further, at JAK3, the Ki was 0.1 to 1 nM. In data set [2], the IC50 is at most 10 nM. In addition, in the data set on Caco-2 cell monolayer, the “Cacoverap Kp 10^−6 cm/sec” value was “B (B represents a value between 20×10^−6 and 35×10^−6 cm/sec)”. Besides, the “Caco Kp 10^−6 cm/sec” value with Caco-2 cell monolayer was “B (B represents a value between 15×10^−6 and 30×10^−6 cm/sec)”. Besides, the solubility at 4 h in “physchem” (setting [3]) is under 5000 µg/mL; in the data set “physchem” (setting [4]), over 10000 µg/mL; in the data set “physchem” (setting [5]), over 10000 µg/mL; in “physchem” (setting [6]), over 10000 µg/mL.

Regarding `CCS(=O)(=O)N1[C@@H]2CCC[C@H]1C[C@H](N(C)c1nc(Nc3cc(C)[nH]n3)cc(C3CCOCC3)n1)C2` [Compound 1, N^2-((1R,3s,5S)-9-(ethylsulfonyl)-9-azabicyclo[3.3.1]nonan-3-yl)-N^2-methyl-N^4-(5-methyl-1H-pyrazol-3-yl)-6-(tetrahydro-2H-pyran-4-yl)pyrimidine-2,4-diamine], on JAK1, the “JAK 1 (pKi)” value is given as “A (A represents a pKi value ≥10 (Ki≤0.1 nM))”. In addition, the Ki at JAK3 was 0.1 to 1 nM. Moreover, the IC50 in data set [2] was at most 10 nM. Further, in the data set on Caco-2 cell monolayer, the “Cacoverap Kp 10^−6 cm/sec” value is given as “A (A represents a value above 35×10^−6 cm/sec)”. Further, the “Caco Kp 10^−6 cm/sec” value in the data set with Caco-2 cell monolayer was “A (A represents a value above 30×10^−6 cm/sec)”. Further, the solubility at 4 h in “physchem” (setting [3]) is under 5000 µg/mL; in the data set “physchem” (setting [4]), over 10000 µg/mL; in the data set “physchem” (setting [5]), over 10000 µg/mL; in “physchem” (setting [6]) it was over 10000 µg/mL.
